# Source: patent publication US20050009837A1, “Modulators of lipid metabolism and methods of use” (City of Hope, priority 2003, published 2005)
# Columns and labels:
# [1] = tested on: SREBP-1c expression; assay: Real-time PCR of SREBP-1c expression in HepG2 cells; format: cell-based, human; settings: 100 nM, 24 hours, versus untreated
# Experimental: Real time PCR was then performed on cDNA derived from RNA isolated form the treated HepG2 cells as follows. Real time quantitative PCR assays were performed using an Applied Biosystems 7700 sequence detector (Applied Biosystems). Each reaction mixture contained 50 ng cDNA, 1.25 pmol each forward and reverse primer, and […] 2× SYBR Green PCR master mix (Applied Biosystems) in a final volume of 25 μl. The PCR conditions were 50° C. for 2 min, 95° C. for 10 min, and 40 cycles of 95° C. for 15 sec and 60° C. for 1 min. Samples were run in duplicate for each primer pair. Expression of glyceraldehyde-3-phosphate dehydrogenase (GAPDH) was analyzed in parallel as an internal control. Each sample was normalized to GAPDH and is represented in the Figure showing the results as arbitrary units with the expression levels in untreated cells assigned a value of one. The primer sequences are as follows: human SREBP-1c forward [NT] ID NO:1); human SREBP-1c reverse [NT] ID NO:2); human GAPDH forward [NT] ID NO:3) and human GAPDH reverse [NT] ID NO:4).
# [2] = tested on: NIH3T3-L1 adipocytes; assay: Triglyceride content (Nile Red) of NIH3T3-L1 cells differentiated to adipocytes; format: cell-based; settings: T0901317 200 nM or Clotrimazole 7.5 μm, 7 days
# Experimental: NIH 3T3-L1 cells were maintained in growth media consisting of Dulbecco's modified Eagle's medium (DMEM) supplemented with 10% calf bovine serum (CBS), 50 U/ml penicillin G and 50 μg/ml streptomycin sulfate. To induce NIH 3T3-L1 differentiation into adipocytes, confluent cells were transferred from their growth media to DMEM containing 10% fetal bovine serum (FBS), 5 μg/ml insulin, 0.5 mM 3-isobutyl-1-methylxanthine (IBMX) and 1 μM dexamethasone for 7 days. During the differentiation period, cells also optionally received 200 nM T0901317, 7.5 μM Clotrimazole or both.
# NIH3T3-L1 cells were allowed to differentiate for 7 days in the presence of a well-established differentiation cocktail containing dexamethazole (1 μm), IBMX (0.5 mM) and insulin (5 μg/ml) in the absence or presence of T0901317 (200 nM) or Clotrimazole (7.5 μm). The cells then were fixed and stained with Nile Red, which stains triglycerides (TG) green, and DAPI to visualize nuclei (in blue). TG content of the cell reflected increased or decreased lipogenesis.
# [3] = mice fed the agonist; cited from earlier work
# [4] = molecular target: T1, human LXRα (Homo sapiens, UniProt Q13133); assay: Full-length hLXRα/hRXRα LXREx3 TK-Luc reporter assay in transfected CV-1 cells; format: cell-based; settings: 20 μM, 40 hours
# T1 construct: expressed in transfected cells; host or cells: CV-1 cells
# T1 sequence (Q13133 1-447): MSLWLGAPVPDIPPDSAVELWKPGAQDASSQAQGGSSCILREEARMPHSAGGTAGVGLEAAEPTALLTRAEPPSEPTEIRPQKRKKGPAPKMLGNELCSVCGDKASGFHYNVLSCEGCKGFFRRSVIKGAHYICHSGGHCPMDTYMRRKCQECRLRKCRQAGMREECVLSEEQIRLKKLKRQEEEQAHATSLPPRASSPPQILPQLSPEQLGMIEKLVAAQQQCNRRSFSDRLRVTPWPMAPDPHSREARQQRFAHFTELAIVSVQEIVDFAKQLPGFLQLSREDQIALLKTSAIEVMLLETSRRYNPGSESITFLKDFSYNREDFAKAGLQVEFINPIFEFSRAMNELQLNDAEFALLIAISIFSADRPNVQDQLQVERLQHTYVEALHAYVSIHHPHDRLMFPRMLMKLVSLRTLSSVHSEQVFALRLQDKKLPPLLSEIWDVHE
# T1 sequence (P19793 1-462 partner): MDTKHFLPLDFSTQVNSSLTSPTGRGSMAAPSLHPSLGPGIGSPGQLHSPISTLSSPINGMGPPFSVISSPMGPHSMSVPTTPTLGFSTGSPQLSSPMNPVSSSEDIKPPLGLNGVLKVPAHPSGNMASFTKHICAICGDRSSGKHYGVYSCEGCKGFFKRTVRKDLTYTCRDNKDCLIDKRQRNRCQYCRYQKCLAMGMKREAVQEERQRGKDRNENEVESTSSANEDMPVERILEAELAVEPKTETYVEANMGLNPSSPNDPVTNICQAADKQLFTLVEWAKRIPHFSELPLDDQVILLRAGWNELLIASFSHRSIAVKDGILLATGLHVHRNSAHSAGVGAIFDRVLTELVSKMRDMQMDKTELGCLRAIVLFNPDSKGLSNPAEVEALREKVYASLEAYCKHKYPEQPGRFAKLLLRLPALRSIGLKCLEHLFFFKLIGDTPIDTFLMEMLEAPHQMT
# Experimental: CV-1 cells were grown in DMEM supplemented with 10% resin-charcoal stripped fetal bovine serum, 50 U/ml penicillin G and 50 μg/ml streptomycin sulfate at 37° C. in 5% CO2. Cells were plated to 50-80% confluence one day prior to transfection using phenol red-free DMEM-FBS. The cells were transfected by lipofection using N-[1-(2,3-dioleoyloxy)propyl]-N,N,N-ammonium methyl sulfate according to manufacturer's instructions (Boehringer Mannheim).
# Genes encoding the following full-length proteins, which are suitable for use in the studies described herein, were cloned into pCMX: human RXRα (Gene Bank accession X52773) and human LXRα (GenBank accession U22662). The cells were transfected with CMX-βgal and luciferase constructs. The CMX-βGal construct contained the ligand binding domain of human RXR (hRXRα) and the ligand binding domain of human LXRα (hLXRα) as indicated in FIG. 1. The luciferase reporter construct (LXREx3 TK-Luc) contained the herpes virus thymidine kinase promoter (−105/+51) linked to three copies of the response element LXRE. After transfection, the cells were treated with 20 μM of a synthetic azole test compound or vehicle alone for 40 hours in phenol red-free DMEM-FBS.
# [5] = molecular target: LXRα (Homo sapiens, UniProt Q13133); assay: LXR activity, fatty acids
compound,measurement,setting,value
O=S(=O)(c1ccccc1)N(CC(F)(F)F)c1ccc(C(O)(C(F)(F)F)C(F)(F)F)cc1 [T0901317],increase of SREBP-1c expression,[1],up to 4 fold
same,TG content compared to differentiation cocktail only,[2],small overall increase in TG content
same,plasma triglycerides compared to mice fed a control diet,[3],elevated plasma triglycerides
CC(=O)N1CCN(c2ccc(OCC3COC(Cn4ccnc4)(c4ccc(Cl)cc4Cl)O3)cc2)CC1 (centres unmarked) [ketonazole],"antagonism of constitutive activation mediated by LXR (hLXRα activity, LXREx3 TK-Luc)",[4],inactive
CC/C=C\C/C=C\C/C=C\CCCCCCCC(=O)O [αlinoleic acid],effect on LXR activity,[5],LXR antagonist
